The test system of this experiment is living organisms. The conditions noted are these: for ATP results, Under Rim, front: Before 74; for ATP results, Bowl Surface, left: Before 81; for ATP results, Bowl Surface, front: Before 91; for ATP results, Handle: Before 225; for ATP results, Tub Floor, right of drain: Before 6204. From the text: First, a control module or control system was constructed using a Raspberry Pi computer with 7 inch touchscreen monitor, Arduino microcontroller, two electronic breadboards, power supplies, and other electrical interfaces. A computer program written in Python receives inputs from the user via a convenient, single-screen input graphic on the touch screen. The graphic allows the user to independently specify the times that disinfecting fluid is dispensed to the sink, toilet, and shower by pressing up and down keys to increase or decrease minutes and seconds for each time. The time between disinfection cycles or cycle time is also input in the same manner. The graphic allows the chemical pump, 3-MD SC made by Little Giant Pump Co., to be enabled or disabled with the touch of a button. A button to start and stop the disinfecting cycle and also an output telling the user what part of the cycle is being run and how much time is left with that part of the cycle is also provided on the graphic interface screen. […] All chemical lines were made from half inch ID PVC reinforced tubing. Half inch stainless steel ball valves manufactured by U.S. Solid were installed in each branch to each plumbing fixture to control the on/off flow to each plumbing fixture, with the valve electronic actuators being wired to the control module and controlled by the program. The distribution structure conduit or tubing at the plumbing fixtures was customized to the shape and location of each plumbing fixture and was attached to each plumbing fixture in the following manner. […] A plexiglass backsplash was constructed about ten inches in height and 14 inches in width, plus partitions on either side protruding forward from the back panel at 45 degrees to help guide disinfecting fluid into the sink basin. The backsplash was held down to the countertop by a bead of silicone caulk, and the upper branch of tubing was mounted on this backsplash above the faucet. […] Holes were drilled in the tubing into which Quarter Circle Fan Micro Spray nozzles made by Mister Landscaper and available at Lowes were inserted and directed to either spray downward to coat the sink walls directly under the nozzles with disinfecting fluid or outward to spray disinfecting fluid into the sink basin on the opposite side of the sink. […] In this tubing, eleven Half Circle Fan Micro Spray nozzles were inserted with ten directed outwards toward the inner surfaces of the toilet bowl and one directed downwards so as to spray fluid onto a relatively large surface of the toilet bowl in the front of the toilet that sloped more gently and was not easily contacted by spray directed towards the sides. […] The program was configured to first apply disinfecting fluid to the sink for the time inputted for the sink, then the toilet, then the shower. When the cycle begins, the program first opens the ball valve to allow fluid to flow to a particular plumbing fixture, and then the pump is turned on and remains on until the end of the dispensing time, at which point the pump is turned off and the valve is closed. This sequence then repeats sequentially until all three plumbing fixtures have received the prescribed time of disinfecting fluid application.

The mark [1] stands for this setting: Inside Toilet Bowl, After 3.5 Days, 40 secs each hour.
The mark [2] stands for this setting: Inside Toilet Bowl, After 6.5 days (40 secs each hour for 3.5 days then 30s each hour for another 3 days).

Where two headings read alike, the source gives them in different places.

For hydrogen peroxide [1% H2O2], the “ATP results, Bowl Surface, rear” value (Inside Toilet Bowl, After 3.5 Days, 40 secs each hour, Before 17) stood at 3 RLU. Further, the “ATP results, Under Rim, right” value (Inside Toilet Bowl, After 3.5 Days, 40 secs each hour, Before 26) is 3 RLU. In addition, the “ATP results, Under Rim, front” value reads like this: under setting [1], 15 RLU; under setting [2], 2 RLU. Also, the “ATP results, Bowl Surface, left” value by setting is: under setting [1], 5 RLU; under setting [2], 3 RLU. Moreover, the “ATP results, Bowl Surface, front” value is, setting by setting: under setting [1], 21 RLU; under setting [2], 5 RLU. For the same substance, the “ATP results, Bowl Surface (above water), right” value (Inside Toilet Bowl, After 3.5 Days, 40 secs each hour, Before 173) amounted to 7 RLU. For the same substance, under “Inside Toilet Bowl, After 3.5 Days, 40 secs each hour, Before 258”, the “ATP results, Under Rim, left” value is 1 RLU. Further, the “ATP results, Under Rim, rear” value (Inside Toilet Bowl, After 3.5 Days, 40 secs each hour, Before 3083) was determined as 2 RLU. For the same substance, the “ATP results, Handle” value (Shower/Tub, After 3.5 Days, 40 secs each hour, disinfectant missed handle until adjustments were made) is 5381^2 RLU and the “ATP results, Handle” value (Shower/Tub, After 6.5 days (40 secs each hour for 3.5 days then 30s each hour for another 3 days), after spray adjusted to hit handle) turned out to be 16 RLU. Moreover, the “ATP results, Tub Floor Center” value (Shower/Tub, After 3.5 Days, 40 secs each hour, Before 1789, remained high due to soap scum not being removed) is on record as 557^3 RLU. For the setting “Shower/Tub, After 3.5 Days, 40 secs each hour, Before 4511”, the “ATP results, Tub Floor, left of drain” value turned out to be 38 RLU. Also, the “ATP results, Tub Floor, right of drain” value is recorded as 8 RLU (Shower/Tub, After 3.5 Days, 40 secs each hour) and 22 RLU (Shower/Tub, After 6.5 days (40 secs each hour for 3.5 days then 30s each hour for another 3 days)). Further, the “ATP results, Inside Drain” value (Shower/Tub, After 3.5 Days, 40 secs each hour, Before 6559) turned out to be 6 RLU. For the same substance, the “ATP results, Top of Drain Plug and Drain Collar” value by setting is: (Shower/Tub, After 3.5 Days, 40 secs each hour, Before 6941) 38 RLU; (Sink, After 3.5 Days, 40 secs each hour, Before 4351) 46 RLU. Moreover, the “ATP results, Sink Basin, Right of Drain” value (Sink, After 3.5 Days, 40 secs each hour, Before 770) is listed as 13 RLU. Further, the “ATP results, Sink Counter, left of faucet” value (Sink, After 3.5 Days, 40 secs each hour, Before 1876) is 6 RLU. The “ATP results, Inside Drain Collar Wall” value (Sink, After 3.5 Days, 40 secs each hour, Before 1951) is on record as 10 RLU. Besides, the “ATP results, Drain Plug, Down Inside Drain (avg)” value (Sink, After 3.5 Days, 40 secs each hour, Before 6863) is 95 RLU.

The values are drawn from patent US20230211030A1, “SYSTEMS AND METHODS FOR DISINFECTING PLUMBING FIXTURES AND ROOMS WITH PLUMBING FIXTURES” (priority 2021, published 2023).
